Source: US10294202B2, “Pyrrolidinones as herbicides” (FMC Corporation, priority 2013, dated 2019)

Key:
rice, transplanted = test: Test F flood (paddy) test; format: in vivo, Oryza sativa cv. Japonica—M202; details: 21 d, scale 0-100
In short: (§1)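 Compounds were applied directly to paddy water held 3 cm above silt loam soil, with rice and weeds at the 2.0–2.5-leaf stage, grown in a greenhouse at 30/27° C under a 16-h photoperiod. Visual ratings (0 no effect to 100 complete control) were made against untreated controls after 21 d.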

nightshade = test: Test E preemergence herbicide test; format: in vivo, Solanum ptycanthum; design: key: 0 = no effect, 100 = complete control
In short: (§2)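 Visual injury rating, 0 (no effect) to 100 (complete control), versus controls at 21 days in greenhouse. Preemergence application to seeds planted in silt loam; compound formulated in non-phytotoxic solvent mix plus surfactant.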

lambsquarters = test: Test E preemergence herbicide test; format: in vivo, Chenopodium album; design: key: 0 = no effect, 100 = complete control
From the text: Seeds of plant species selected from corn (Zea mays), soybean (Glycine max), velvetleaf (Abutilon theophrasti), lambsquarters (Chenopodium album), wild poinsettia (Euphorbia heterophylla), pigweed, palmer (palmer pigweed, Amaranthus palmeri), waterhemp (common waterhemp, Amaranthus rudis), surinam grass (Brachiaria decumbens), crabgrass, large (large crabgrass, Digitaria sanguinalis), crabgrass, Brazil (Brazilian crabgrass, Digitaria horizontalis), panicum, fall (fall panicum, Panicum dichotomiflorum), foxtail, giant (giant foxtail, Setaria faberii), foxtail, green (green foxtail, Setaria viridis), goosegrass (Eleusine indica), johnsongrass (Sorghum halepense), ragweed (common ragweed, Ambrosia elatior), barnyardgrass (Echinochloa crus-galli), sandbur (southern sandbur, Cenchrus echinatus), arrowleaf […] rhombifolia), ryegrass, Italian (Italian ryegrass, Lolium multiflorum), dayflower, VA (Virginia dayflower, Commelina virginica), field bindweed (Convolvulus arvensis), morningglory (Ipomoea coccinea), nightshade (eastern black nightshade, Solanum ptycanthum), kochia (Kochia scoparia), nutsedge, yellow (yellow nutsedge, Cyperus esculentus), cocklebur (common cocklebur, Xanthium strumarium), smartweed (ladysthumb smartweed, Polygonum Persicaria) and beggarticks (hairy beggarticks, Bidens pilosa), were planted into a silt loam soil and treated preemergence with test chemicals formulated in a non-phytotoxic solvent mixture which included a surfactant. Treated plants and controls were maintained in a greenhouse for 21 days, after which time all species were compared to controls and visually evaluated. Plant response ratings, summarized in Table E, are based on a scale of 0 to 100 where 0 is no effect and 100 is complete control. A dash (-) response means no test result.

Russian thistle = test: Test D pre-/postemergence herbicide test; format: in vivo, Salsola kali; details: Postemergence, Russian Thistle, scale 0 to 100
In short: (§3)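 Seeds sown in silt loam were sprayed preemergence with test chemicals in a non-phytotoxic solvent mixture with surfactant. Postemergence plants grown in peat/vermiculite medium were treated at 2–18 cm (1- to 4-leaf stage). After 7 to 21 days in a controlled environment, injury was rated visually versus controls, 0 (no effect) to 100 (complete control).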

soybean = test: Test E preemergence herbicide test; format: in vivo, Glycine max; design: key: 0 = no effect, 100 = complete control
In short: as §2

watergrass, late = test: Test F flood (paddy) test; format: in vivo, Echinochloa oryzicola; details: 21 d, scale 0-100
In short: as §1

mustard, wild = test: Test D pre-/postemergence herbicide test; format: in vivo, Sinapis arvensis; details: for Plant response rating: Mustard, Wild, scale 0 to 100; for Plant response rating, Mustard, Wild: scale 0 to 100 (0 no effect, 100 complete control)
In short: as §3

Structure (SMILES)	Plant response rating, Rice, Transplanted (rice, transplanted; 125 g ai/ha)	Plant response rating, Rice, Transplanted (rice, transplanted; 250 g ai/ha)	Plant response rating, Rice, Transplanted (rice, transplanted; 500 g ai/ha)	Plant response rating, Nightshade (nightshade; 62 g ai/ha)	Plant response rating, Nightshade (nightshade; 125 g ai/ha)	Plant response rating, Nightshade (nightshade; 250 g ai/ha)	Plant response rating, Lambsquarters (lambsquarters; 31 g ai/ha)	Plant response rating, Lambsquarters (lambsquarters; 62 g ai/ha)	Plant response rating, Lambsquarters (lambsquarters; 125 g ai/ha)	Plant response rating, Lambsquarters (lambsquarters; 250 g ai/ha)	Plant response rating, Soybean (soybean; 31 g ai/ha)	Plant response rating, Soybean (soybean; 62 g ai/ha)	Plant response rating, Soybean (soybean; 125 g ai/ha)	Plant response rating, Soybean (soybean; 250 g ai/ha)	Plant response rating, Watergrass, Late (watergrass, late; 125 g ai/ha)	Plant response rating, Watergrass, Late (watergrass, late; 250 g ai/ha)	Plant response rating, Watergrass, Late (watergrass, late; 500 g ai/ha)	other results
O=C1NCC(c2ccc(F)c(F)c2)C1C(=O)Nc1cccc(F)c1F (stereo not shown) [Compound 17, N-(2,3-difluorophenyl)-4-(3,4-difluorophenyl)-2-oxo-3-pyrrolidinecarboxamide]	10	10	10	0	0	0	0	0	0	0	0	0	0	0	80	85	90	Plant response rating, Rice, Transplanted (rice, transplanted; 1000 g ai/ha): 10; Plant response rating, Rice, Transplanted (rice, transplanted; 2000 g ai/ha): 10; Plant response rating, Nightshade (nightshade; 16 g ai/ha): 0; Plant response rating, Lambsquarters (lambsquarters; 16 g ai/ha): 0; Plant response rating (Russian thistle; 16 g ai/ha): 0; Plant response rating (Russian thistle; 31 g ai/ha): 0; Plant response rating (Russian thistle; 62 g ai/ha): 0; Plant response rating (Russian thistle; 125 g ai/ha): 20; Plant response rating (Russian thistle; 250 g ai/ha): 40; Plant response rating, Soybean (soybean; 16 g ai/ha): 0; Plant response rating, Watergrass, Late (watergrass, late; 1000 g ai/ha): 90; Plant response rating, Watergrass, Late (watergrass, late; 2000 g ai/ha): 95; Plant response rating (mustard, wild; Postemergence, 16 g ai/ha): 0; Plant response rating (mustard, wild; Postemergence, 31 g ai/ha): 0; Plant response rating (mustard, wild; Postemergence, 62 g ai/ha): 10; Plant response rating (mustard, wild; Postemergence, 125 g ai/ha): 30; Plant response rating (mustard, wild; Postemergence, 250 g ai/ha): 30
O=C1NC[C@H](c2cccc(C(F)(F)F)c2)[C@H]1C(=O)Nc1cccc(F)c1F [Compound 206]	0	10	40	0	5	10	35	65	95	98	0	0	0	0	100	100	100	Plant response rating, Rice, Transplanted (rice, transplanted; 64 g ai/ha): 0; Plant response rating, Nightshade (nightshade; 31 g ai/ha): 0; Plant response rating, Watergrass, Late (watergrass, late; 64 g ai/ha): 90; Plant response rating, Mustard, Wild (mustard, wild; Preemergence, 62 g ai/ha): 0; Plant response rating, Mustard, Wild (mustard, wild; Preemergence, 125 g ai/ha): 0; Plant response rating, Mustard, Wild (mustard, wild; Preemergence, 31 g ai/ha): 0; Plant response rating (mustard, wild; Preemergence, 250 g ai/ha): 75
